Data from ChEMBL document CHEMBL4725408, “Antibacterial Spiropyrimidinetriones with N-Linked Azole Substituents on a Benzisoxazole Scaffold Targeting DNA Gyrase” (J Med Chem, 2020).
In brackets after ≈: the same amount, converted by molar mass. Activity calls are given as the source filed them. The calls are words filed in the database; no cut-off is given here.

Legend:
[1] = Inhibition of recombinant Escherichia coli DNA gyrase AB expressed in Escherichia coli BL21 (DE3) using relaxed pJT519 DNA as substrate preincubated for 20 mins followed by 5'-BODIPY-TMR-TTCTTCTTCT addition and measured after 1 hr by fluorescence anisotropy
[2] = n-octanol/phosphate buffer partition coefficient, log D of the compound at pH 7.4 measured after 1 hr by UV-LC/MS based shake flask method; format: physicochemical
[3] = Solubility of the compound by high throughput solubility assay; format: physicochemical
[4] = Protein binding in human plasma assessed as unbound fraction at 10 uM measured after 16 hrs by LC-MS/MS based equilibrium dialysis method; format: ADME, cell-free
[5] = test system: Staphylococcus aureus; experiment: Antibacterial activity against methicillin sensitive Staphylococcus aureus ARC516 by broth microdilution method; format: functional
[6] = test system: Staphylococcus aureus; experiment: Antibacterial activity against methicillin sensitive Staphylococcus aureus ARC516 in presence of human serum by broth microdilution method; format: functional
[7] = test system: Staphylococcus aureus; experiment: Antibacterial activity against methicillin/quinolone-resistant Staphylococcus aureus ARC517 by broth microdilution method; format: functional
[8] = test system: Escherichia coli; experiment: Antibacterial activity against Escherichia coli ARC523 by broth microdilution method; format: functional
[9] = test system: Streptococcus pneumoniae; experiment: Antibacterial activity against Streptococcus pneumoniae ARC548 by broth microdilution method; format: functional
[10] = test system: Streptococcus pyogenes; experiment: Antibacterial activity against Streptococcus pyogenes ARC838 by broth microdilution method; format: functional
[11] = test system: Haemophilus influenzae; experiment: Antibacterial activity against Haemophilus influenzae ARC737 by broth microdilution method; format: functional
[12] = Plasma clearance in Wistar Han rat at 3 mg/kg, iv administered as 15 mins infusion by LC-MS/MS analysis; format: ADME, organism-based; design: unit not given here; conditions: in vivo, 0.25 h
[13] = Unbound plasma clearance in Wistar Han rat at 3 mg/kg, iv administered as 15 mins infusion by LC-MS/MS analysis; format: ADME, organism-based; design: unit not given here; conditions: in vivo, 0.25 h
[14] = test system: L5178Y; experiment: Genotoxicity in mouse L5178Y cells using DAPI staining by microscopy based micronucleation assay; format: toxicity, cell-based
[15] = Protein binding in mouse plasma assessed as unbound fraction at 10 uM measured after 16 hrs by LC-MS/MS based equilibrium dialysis method; format: ADME, cell-free
[16] = Protein binding in rat plasma assessed as unbound fraction at 10 uM measured after 16 hrs by LC-MS/MS based equilibrium dialysis method; format: ADME, cell-free
[17] = Plasma clearance in CD-1 mouse at 3 mg/kg, iv administered as 15 mins infusion by LC-MS/MS analysis; format: ADME, organism-based; conditions: in vivo, 0.25 h
[18] = Unbound plasma clearance in CD-1 mouse at 3 mg/kg, iv administered as 15 mins infusion by LC-MS/MS analysis; format: ADME, organism-based; conditions: in vivo, 0.25 h
[19] = Volume of distribution at steady state in CD-1 mouse at 3 mg/kg, iv administered as 15 mins infusion by LC-MS/MS analysis; format: ADME, organism-based; conditions: in vivo, read-out: Vdss
[20] = Volume of distribution at steady state in Wistar Han rat at 3 mg/kg, iv administered as 15 mins infusion by LC-MS/MS analysis; format: ADME, organism-based; conditions: in vivo, read-out: Vdss
[21] = Half life in CD-1 mouse at 3 mg/kg, iv administered as 15 mins infusion by LC-MS/MS analysis; format: ADME, organism-based; conditions: in vivo
[22] = Half life in Wistar Han rat at 3 mg/kg, iv administered as 15 mins infusion by LC-MS/MS analysis; format: ADME, organism-based; conditions: in vivo
[23] = Oral bioavailability in CD-1 mouse at 10 mg/kg by LC-MS/MS analysis; format: ADME, organism-based; conditions: in vivo
[24] = Oral bioavailability in Wistar Han rat at 10 mg/kg by LC-MS/MS analysis; format: ADME, organism-based; conditions: in vivo
[25] = test system: Staphylococcus aureus; experiment: Antibacterial activity against methicillin sensitive Staphylococcus aureus ARC516 infected in CD-1 mouse neutropenic thigh infection model assessed as log reduction in colony forming unit at 25 to 150 mg/kg, ip measured after 12 hrs relative to initial treatment control; format: functional; conditions: dose mg/kg 25-150
[26] = test system: Staphylococcus aureus; experiment: Antibacterial activity against methicillin sensitive Staphylococcus aureus ARC516 infected in CD-1 mouse neutropenic thigh infection model assessed as log reduction in colony forming unit at 150 mg/kg, ip measured after 24 hrs relative to initial treatment control; format: functional; conditions: dose mg/kg 25-150
[27] = test system: Staphylococcus aureus; experiment: Antibacterial activity against methicillin sensitive Staphylococcus aureus ARC516 infected in CD-1 mouse neutropenic thigh infection model assessed as log reduction in colony forming unit at 150 mg/kg, ip measured after 24 hrs relative to untreated control; format: functional
[28] = test system: Staphylococcus aureus; experiment: Antibacterial activity against methicillin sensitive Staphylococcus aureus ARC516 infected in CD-1 mouse neutropenic thigh infection model assessed as reduction in colony forming unit at 25 to 50 mg/kg, ip measured after 24 hrs; format: functional, organism-based
[29] = Ratio of MIC for antibacterial activity against methicillin/quinolone-resistant Staphylococcus aureus ARC517 to protein binding in human plasma assessed as unbound fraction

| SMILES | IC50 [1] | logD at 1 h [2] | solubility [3] | fraction unbound at 16 h, 10 µM [4] | MIC [5] | MIC [6] | MIC [7] | MIC [8] | MIC [9] | MIC [10] | MIC [11] | CL [12] | CL free [13] | NOAEL [14] | also measured |
| --- | --- | --- | --- | --- | --- | --- | --- | --- | --- | --- | --- | --- | --- | --- | --- |
| COCc1ncnn1-c1noc2c(F)c3c(cc12)CC1(C(=O)NC(=O)NC1=O)[C@H]1[C@H](C)O[C@H](C)CN31 | 1100 nM | 1.7 | 890 µM (≈ 445 µg/mL) | 0.14 | < 0.2 µM | 0.39 µM | 0.39 µM (≈ 0.195 µg/mL) | 70 µM (≈ 35 µg/mL) | 0.78 µM (≈ 0.39 µg/mL) | 0.78 µM (≈ 0.39 µg/mL) | 0.78 µM (≈ 0.39 µg/mL) | 17 | 120 | 12 µM |  |
| COc1ncnn1-c1noc2c(F)c3c(cc12)CC1(C(=O)NC(=O)NC1=O)[C@H]1[C@H](C)O[C@H](C)CN31 | 320 nM | 1.7 | 900 µM (≈ 437 µg/mL) | 0.14 | 0.098 µM (≈ 0.0476 µg/mL) | 0.39 µM | 0.39 µM (≈ 0.189 µg/mL) | 30 µM (≈ 14.6 µg/mL) | 0.39 µM (≈ 0.189 µg/mL) | 0.39 µM (≈ 0.189 µg/mL) | 0.78 µM (≈ 0.379 µg/mL) | 13 | 93 | 25 µM | fraction unbound at 16 h, 10 µM [15]: 0.2; fraction unbound at 16 h, 10 µM [16]: 0.13; CL [17]: 0.66 mL/h/kg; CL free [18]: 3.3 mL/h/kg; Vd [19]: 2.4 L/kg; Vd [20]: 1.9 L/kg; half-life [21]: 2.52 h; half-life [22]: 1.69 h; bioavailability [23]: 62%; bioavailability [24]: 48%; log(activity) [25]: 1; log(activity) [26]: 2; log(activity) [27]: 4.5; Activity [28]: inactive |
| C[C@@H]1CN2c3c(cc4c(-n5ncnc5CN(C)C)noc4c3F)CC3(C(=O)NC(=O)NC3=O)[C@H]2[C@H](C)O1 | 590 nM | 0.93 | > 1000 µM | 0.18 | < 0.2 µM | 0.39 µM | 0.78 µM (≈ 0.4 µg/mL) | 50 µM (≈ 25.6 µg/mL) | 1.6 µM (≈ 0.82 µg/mL) | 1.6 µM (≈ 0.82 µg/mL) | 1.6 µM (≈ 0.82 µg/mL) | 23 | 110 |  |  |
| C[C@@H]1CN2c3c(cc4c(-n5ncnc5CO)noc4c3F)CC3(C(=O)NC(=O)NC3=O)[C@H]2[C@H](C)O1 | 190 nM | 1.4 | > 1000 µM | 0.17 | 0.31 µM (≈ 0.15 µg/mL) | 0.49 µM | 1.6 µM (≈ 0.777 µg/mL) | 50 µM (≈ 24.3 µg/mL) | 0.39 µM (≈ 0.189 µg/mL) | 0.78 µM (≈ 0.379 µg/mL) | 0.78 µM (≈ 0.379 µg/mL) | 37 | 220 | 12 µM |  |
| C[C@@H]1CN2c3c(cc4c(-n5cnnc5)noc4c3F)CC3(C(=O)NC(=O)NC3=O)[C@H]2[C@H](C)O1 | 300 nM | 0.54 | > 1000 µM | 0.34 | 6.25 µM (≈ 2.85 µg/mL) | 12.5 µM | 25 µM (≈ 11.4 µg/mL) | > 200 µM |  |  |  |  |  |  | Ratio [29]: 74 |
| CCNc1ncnn1-c1noc2c(F)c3c(cc12)CC1(C(=O)NC(=O)NC1=O)[C@H]1[C@H](C)O[C@H](C)CN31 | 97 nM | 2.2 | 3 µM (≈ 1.5 µg/mL) | 0.037 | 0.049 µM (≈ 0.0244 µg/mL) | < 0.2 µM | 0.098 µM (≈ 0.0489 µg/mL) | 12 µM (≈ 5.98 µg/mL) | < 0.2 µM | < 0.2 µM | 0.39 µM (≈ 0.194 µg/mL) | 11 | 130 |  |  |
